Source: patent publication US20070244071A1, “Treatment of proliferative diseases” (MOUNT SINAI HOSPITAL, priority 2006, published 2007)

Assays:
[1] = system: non-transformed MvLu epithelial cells; experiment: Cytotoxicity / cell growth assay, MvLu cells; assay type: cell-based; conditions: increasing concentrations, DMEM 1% FBS, AlamarBlue, 72 h (source says 48 h)
Description: In brief, 1000 cells/well were seeded in 96 well plates and cultured for 24 h prior to the addition of DAM-1976. Viable cells were measured at 48 or 72 h by adding of either XTT or AlamarBlue with further incubation at 37° C. For the XTT assay, absorbance was measured at 500 nm, 4 h after addition of XTT. Fluorescence with excitation at 544 nm and emission at 590 nm were measured 24 h after addition of AlamarBlue.

[2] = system: TGF-β induced Smad2/3 nuclear translocation; experiment: TGF-β-dependent Smad2/3 nuclear translocation assay in NMuMG cells; assay type: cell-based, Murine
Description: NMuMG epithelial cells were plated in 96 well Coming tissue plates (Coming) at a density of 5000 cells/well in 100 μl of DMEM, 10% FBS, 10 μg/ml insulin (Gibco) for 24 h. The medium was replaced with 100 μl of DMEM, 10 μg/ml insulin, 0.2 mg/ml BSA (fraction V) for 18 h. Test compounds at 10 μM were added and cells were incubated for 60 min at 37° C. TGF-β1 (R&D System, Minneapolis, Minn.) was added at 50 pM and incubated for a further 50 min. Cells were then fixed with 4% paraformaldehyde in PBS for 15 min and washed 3 times in PBS. Cells were permeabilized with 100% methanol for 2 min, then washed 3 times with PBS, followed by the addition of 150 μl PBS, 10% FBS. Plates were stored overnight at 4° C. Anti-Smad2/3 or anti-phospho-Smad2 antibodies (Transduction Laboratories, San Jose, Calif.) diluted 1:1000 in PBS plus 10% FBS were added at 50 μl/well and the plates were incubated for 1 h at 20° C. […] The wells were washed 3 times with PBS and imaged and quantified on the Array Scan (Cellomics Inc., Pittsburgh, Pa.) using the cytoplasmic-nuclear translocation program. To measure Erk phosphorylation (Erk-p) and nuclear translocation, mouse anti-phospho-Erkl/2 (Thr202/Tyr204) (Sigma, St. Louis, Mo.) was added at 1/1000 in PBS plus 10% FBS for 1 h at 20° C. The nuclear-cytoplasmic difference was determined for 100 cells per well, generating a mean±SE for each condition.

[3] = system: MvLu cells; experiment: Steady-state nuclear Smad2-p and Erk-p, MvLu cells; assay type: cell-based; conditions: MvLu cells in culture, 1% FBS
[4] = system: Mgat5^+/+(2.6) mammary carcinoma cells; experiment: Nuclear Smad2/3 and Erk-p (TGF-β / EGF sensitivity) in Mgat5^+/+(2.6) cells; assay type: cell-based, mice; conditions: Mgat5^+/+(2.6) cells in culture, 1% FBS, steady state
[5] = system: DR26 cells; experiment: Steady-state nuclear Smad2-p and Erk-p, DR26 cells; assay type: cell-based; conditions: DR26 cells in culture, 1% FBS

TGF-β: transforming growth factor-beta cytokine; TGF-β1 (R&D System) used as stimulus and growth comparator
cell growth (cell number) [1]: inhibited
increase in nuclear Smad2/3 protein ([2]; 20 min after addition of cytokine, sustained until 50 min): 10 fold
saturation of Smad2/3 nuclear translocation ([2]; dose of 50 pM): ~80%
basal nuclear Erk-p [3]: a decline or no change
basal nuclear Smad2-p [3]: increased slightly
basal nuclear Erk-p [4]: enhanced
basal nuclear Smad2-p [4]: not altered
basal nuclear Erk-p [5]: a decline or no change
basal nuclear Smad2-p [5]: not altered
